Laboratory results from ChEMBL document CHEMBL5236636, “Synthesis, anticancer evaluation, and molecular docking studies of thiazolyl-pyrazoline derivatives” (Bioorg Med Chem Lett, 2023).
The source made the active and inactive calls. The calls are words filed in the database; no cut-off is given here.

tested on: A549; assay: Potency index, ratio of erlotinib IC50 to test compound IC50 for human A549 cells; type: functional; conditions: not given

| SMILES | Ratio IC50 |
| --- | --- |
| COc1ccc(C2=NN(c3nc(-c4ccc(Br)cc4)cs3)C(c3ccc(F)cc3)C2)cc1 (configuration not stated) | 1.7 |

tested on: A549; assay: Antimetastatic activity against human A549 cells assessed as reduction in MMP-9 expression at 100 uM preincubated with SNP for 3 hrs followed by compound addition and measured after 24 hrs by gelatin zymography; type: functional, cell-based; conditions: not given

| SMILES | Activity |
| --- | --- |
| COc1ccc(C2=NN(c3nc(-c4ccc(Br)cc4)cs3)C(c3ccc(F)cc3)C2)cc1 (configuration not stated) | inactive |
| COc1ccc(C2=NN(c3nc(-c4ccc(Br)cc4)cs3)C(c3ccc(C)cc3)C2)cc1 (configuration not stated) | inactive |
| COc1cc(C2CC(c3ccccc3)=NN2c2nc(-c3ccc(Br)cc3)cs2)ccc1OCc1ccccc1 (configuration not stated) | inactive |
| COc1ccc(C2=NN(c3nc(-c4ccc(Br)cc4)cs3)C(c3ccc(OCc4ccccc4)c(OC)c3)C2)cc1 (configuration not stated) | inactive |

tested on: A-375; assay: Antiinflammatory activity against human A-375 cells assessed as reduction in COX-2 expression at 100 uM preincubated with SNP for 3 hrs followed by compound addition and measured after 24 hrs by Western blot analysis; type: functional, cell-based; conditions: not given

| SMILES | Activity |
| --- | --- |
| COc1ccc(C2=NN(c3nc(-c4ccc(Br)cc4)cs3)C(c3ccc(F)cc3)C2)cc1 (configuration not stated) | Active |
| COc1cc(C2CC(c3ccccc3)=NN2c2nc(-c3ccc(Br)cc3)cs2)ccc1OCc1ccccc1 (configuration not stated) | Active |
| COc1ccc(C2=NN(c3nc(-c4ccc(Br)cc4)cs3)C(c3ccc(OCc4ccccc4)c(OC)c3)C2)cc1 (configuration not stated) | Active |

tested on: A-375; assay: Antimetastatic activity against human A-375 cells assessed as reduction in MMP-2 expression at 100 uM preincubated with SNP for 3 hrs followed by compound addition and measured after 24 hrs by gelatin zymography; type: functional, cell-based; conditions: not given

| SMILES | Activity |
| --- | --- |
| COc1ccc(C2=NN(c3nc(-c4ccc(Br)cc4)cs3)C(c3ccc(F)cc3)C2)cc1 (configuration not stated) | inactive |
| COc1ccc(C2=NN(c3nc(-c4ccc(Br)cc4)cs3)C(c3ccc(C)cc3)C2)cc1 (configuration not stated) | inactive |
| COc1cc(C2CC(c3ccccc3)=NN2c2nc(-c3ccc(Br)cc3)cs2)ccc1OCc1ccccc1 (configuration not stated) | inactive |
| COc1ccc(C2=NN(c3nc(-c4ccc(Br)cc4)cs3)C(c3ccc(OCc4ccccc4)c(OC)c3)C2)cc1 (configuration not stated) | inactive |

tested on: not listed separately; assay: Cytotoxicity against rabbit articular chondrocytes incubated for 24 hrs by MTT assay; type: toxicity, cell-based, Oryctolagus cuniculus, Chondrocyte; conditions: not given

| SMILES | IC50 at 24 h |
| --- | --- |
| COc1ccc(C2=NN(c3nc(-c4ccc(Br)cc4)cs3)C(c3ccc(F)cc3)C2)cc1 (configuration not stated) | 146 µM |
| COc1ccc(C2=NN(c3nc(-c4ccc(Br)cc4)cs3)C(c3ccc(C)cc3)C2)cc1 (configuration not stated) | 151 µM |
| COc1cc(C2CC(c3ccccc3)=NN2c2nc(-c3ccc(Br)cc3)cs2)ccc1OCc1ccccc1 (configuration not stated) | 357 µM |
| C#Cc1cccc(Nc2ncnc3cc(OCCOC)c(OCCOC)cc23)c1 [ERLOTINIB] | 63.5 µM |
| COc1ccc(C2=NN(c3nc(-c4ccc(Br)cc4)cs3)C(c3ccc(OCc4ccccc4)c(OC)c3)C2)cc1 (configuration not stated) | 435 µM |

tested on: A549; assay: Antiinflammatory activity against human A549 cells assessed as reduction in COX-2 expression at 100 uM preincubated with SNP for 3 hrs followed by compound addition and measured after 24 hrs by Western blot analysis; type: functional, cell-based; conditions: not given

| SMILES | Activity |
| --- | --- |
| COc1cc(C2CC(c3ccccc3)=NN2c2nc(-c3ccc(Br)cc3)cs2)ccc1OCc1ccccc1 (configuration not stated) | Active |
| COc1ccc(C2=NN(c3nc(-c4ccc(Br)cc4)cs3)C(c3ccc(OCc4ccccc4)c(OC)c3)C2)cc1 (configuration not stated) | Active |

tested on: A549; assay: Antimetastatic activity against human A549 cells assessed as reduction in MMP-2 expression at 100 uM preincubated with SNP for 3 hrs followed by compound addition and measured after 24 hrs by gelatin zymography; type: functional, cell-based; conditions: not given

| SMILES | Activity |
| --- | --- |
| COc1ccc(C2=NN(c3nc(-c4ccc(Br)cc4)cs3)C(c3ccc(F)cc3)C2)cc1 (configuration not stated) | inactive |
| COc1ccc(C2=NN(c3nc(-c4ccc(Br)cc4)cs3)C(c3ccc(C)cc3)C2)cc1 (configuration not stated) | inactive |
| COc1cc(C2CC(c3ccccc3)=NN2c2nc(-c3ccc(Br)cc3)cs2)ccc1OCc1ccccc1 (configuration not stated) | inactive |
| COc1ccc(C2=NN(c3nc(-c4ccc(Br)cc4)cs3)C(c3ccc(OCc4ccccc4)c(OC)c3)C2)cc1 (configuration not stated) | inactive |

tested on: A-375; assay: Antiproliferative activity against human A-375 cells incubated for 24 hrs by MTT assay; type: functional, cell-based; conditions: A-375, 24 h

| SMILES | IC50 |
| --- | --- |
| Cc1ccc(C2CC(c3ccccc3)=NN2c2nc(-c3ccc(Br)cc3)cs2)cc1 (configuration not stated) | 103 µM |
| COc1cc(C2CC(c3ccccc3)=NN2c2nc(-c3ccc(Br)cc3)cs2)ccc1OCc1ccccc1 (configuration not stated) | 18.4 µM |
| Clc1ccc(C2CC(c3ccccc3)=NN2c2nc(-c3ccc(Br)cc3)cs2)cc1 (configuration not stated) | 42.8 µM |
| Brc1ccc(-c2csc(N3N=C(c4ccccc4)CC3c3ccc(Br)cc3)n2)cc1 (configuration not stated) | 97.5 µM |
| C#Cc1cccc(Nc2ncnc3cc(OCCOC)c(OCCOC)cc23)c1 [ERLOTINIB] | 25.9 µM |

Other lines, results leading:

| IC50 | SMILES |
| --- | --- |
| 16.1 µM | COc1ccc(C2=NN(c3nc(-c4ccc(Br)cc4)cs3)C(c3ccc(F)cc3)C2)cc1 (configuration not stated) |
| 45.1 µM | COc1ccc(C2=NN(c3nc(-c4ccc(Br)cc4)cs3)C(c3ccc(OC)cc3)C2)cc1 (configuration not stated) |
| 55.7 µM | COc1ccc(C2=NN(c3nc(-c4ccc(Br)cc4)cs3)C(c3ccc(Cl)cc3)C2)cc1 (configuration not stated) |
| 40.5 µM | COc1ccc(C2CC(c3ccccc3)=NN2c2nc(-c3ccc(Br)cc3)cs2)cc1 (configuration not stated) |
| 31.6 µM | COc1ccc(C2=NN(c3nc(-c4ccc(Br)cc4)cs3)C(c3ccc(Br)cc3)C2)cc1 (configuration not stated) |
| 20.1 µM | COc1ccc(C2=NN(c3nc(-c4ccc(Br)cc4)cs3)C(c3ccc(C)cc3)C2)cc1 (configuration not stated) |
| 20.6 µM | COc1ccc(C2=NN(c3nc(-c4ccc(Br)cc4)cs3)C(c3ccc(OCc4ccccc4)c(OC)c3)C2)cc1 (configuration not stated) |

tested on: A-375; assay: Potency index, ratio of erlotinib IC50 to test compound IC50 for human A-375 cells; type: functional; conditions: not given

| SMILES | Ratio IC50 |
| --- | --- |
| COc1ccc(C2=NN(c3nc(-c4ccc(Br)cc4)cs3)C(c3ccc(F)cc3)C2)cc1 (configuration not stated) | 1.7 |

tested on: A-375; assay: Antimetastatic activity against human A-375 cells assessed as reduction in MMP-9 expression at 100 uM preincubated with SNP for 3 hrs followed by compound addition and measured after 24 hrs by gelatin zymography; type: functional, cell-based; conditions: not given

| SMILES | Activity |
| --- | --- |
| COc1ccc(C2=NN(c3nc(-c4ccc(Br)cc4)cs3)C(c3ccc(F)cc3)C2)cc1 (configuration not stated) | inactive |
| COc1ccc(C2=NN(c3nc(-c4ccc(Br)cc4)cs3)C(c3ccc(C)cc3)C2)cc1 (configuration not stated) | inactive |
| COc1cc(C2CC(c3ccccc3)=NN2c2nc(-c3ccc(Br)cc3)cs2)ccc1OCc1ccccc1 (configuration not stated) | inactive |
| COc1ccc(C2=NN(c3nc(-c4ccc(Br)cc4)cs3)C(c3ccc(OCc4ccccc4)c(OC)c3)C2)cc1 (configuration not stated) | inactive |

tested on: not listed separately; assay: Selectivity index, ratio of IC50 for rabbit articular chondrocytes to IC50 for human A-375; conditions: not given

| SMILES | Ratio IC50 |
| --- | --- |
| COc1cc(C2CC(c3ccccc3)=NN2c2nc(-c3ccc(Br)cc3)cs2)ccc1OCc1ccccc1 (configuration not stated) | 19.4 |
| C#Cc1cccc(Nc2ncnc3cc(OCCOC)c(OCCOC)cc23)c1 [ERLOTINIB] | 2.45 |

Next, values leading:

| Ratio IC50 | SMILES |
| --- | --- |
| 9.04 | COc1ccc(C2=NN(c3nc(-c4ccc(Br)cc4)cs3)C(c3ccc(F)cc3)C2)cc1 (configuration not stated) |
| 7.53 | COc1ccc(C2=NN(c3nc(-c4ccc(Br)cc4)cs3)C(c3ccc(C)cc3)C2)cc1 (configuration not stated) |
| 21.1 | COc1ccc(C2=NN(c3nc(-c4ccc(Br)cc4)cs3)C(c3ccc(OCc4ccccc4)c(OC)c3)C2)cc1 (configuration not stated) |

tested on: A549; assay: Antiproliferative activity against human A549 cells incubated for 24 hrs by MTT assay; type: functional, cell-based; conditions: A549, 24 h

| SMILES | IC50 |
| --- | --- |
| Cc1ccc(C2CC(c3ccccc3)=NN2c2nc(-c3ccc(Br)cc3)cs2)cc1 (configuration not stated) | 126 µM |
| COc1cc(C2CC(c3ccccc3)=NN2c2nc(-c3ccc(Br)cc3)cs2)ccc1OCc1ccccc1 (configuration not stated) | 25.9 µM |
| Clc1ccc(C2CC(c3ccccc3)=NN2c2nc(-c3ccc(Br)cc3)cs2)cc1 (configuration not stated) | 52 µM |
| Brc1ccc(-c2csc(N3N=C(c4ccccc4)CC3c3ccc(Br)cc3)n2)cc1 (configuration not stated) | 74.2 µM |
| C#Cc1cccc(Nc2ncnc3cc(OCCOC)c(OCCOC)cc23)c1 [ERLOTINIB] | 34.2 µM |

Further lines, results first:

| IC50 | SMILES |
| --- | --- |
| 20.3 µM | COc1ccc(C2=NN(c3nc(-c4ccc(Br)cc4)cs3)C(c3ccc(F)cc3)C2)cc1 (configuration not stated) |
| 51.8 µM | COc1ccc(C2=NN(c3nc(-c4ccc(Br)cc4)cs3)C(c3ccc(OC)cc3)C2)cc1 (configuration not stated) |
| 47.8 µM | COc1ccc(C2=NN(c3nc(-c4ccc(Br)cc4)cs3)C(c3ccc(Cl)cc3)C2)cc1 (configuration not stated) |
| 37.4 µM | COc1ccc(C2CC(c3ccccc3)=NN2c2nc(-c3ccc(Br)cc3)cs2)cc1 (configuration not stated) |
| 45.7 µM | COc1ccc(C2=NN(c3nc(-c4ccc(Br)cc4)cs3)C(c3ccc(Br)cc3)C2)cc1 (configuration not stated) |
| 26.1 µM | COc1ccc(C2=NN(c3nc(-c4ccc(Br)cc4)cs3)C(c3ccc(C)cc3)C2)cc1 (configuration not stated) |
| 27.3 µM | COc1ccc(C2=NN(c3nc(-c4ccc(Br)cc4)cs3)C(c3ccc(OCc4ccccc4)c(OC)c3)C2)cc1 (configuration not stated) |
